Earlier results, collected in US9468597B1, “Stabilized L-ascorbic acid skin serum” (Dr. Perry Skindustries, LLC, priority 2013, dated 2016).

How the values were obtained:
skin = details: 18% or 10% concentration placed under a patch for 4 days
[1] = without exposure to light

half-life [1]: about 4 day
Structure (SMILES): O=C1O[C@H]([C@@H](O)CO)C(O)=C1O [vitamin C, L-ascorbic acid]
skin irritation (skin): Neither an 18% nor a 10% concentration irritated the skin
